From US4973587A, “3-arylcarbonyl-1-aminoalkyl-1H-indole-containing antiglaucoma method” (Sterling Drug Inc., priority 1990, dated 1990) come the findings set out here.

For this test, the system named is mouse vas deferens. In words: mouse vas deferens test (MVD). The class given is cell-based. The following applies: inhibition of contractions in mouse vas deferens preparation in vitro, active at 5.0 μM or less. An excerpt:
Med. Assoc. 217, 1392 (1971)]. […] Opth 7, 921-923 (1975); Green and Pederson, Effect of delta-9 Tetrahydrocannabinol on Aqueous Dynamics and Ciliary Body Permeability in the Rabbit Eye., Exptl. Eye Research 15, 499-507 (1973); Colasanti, Craig and Allara, Intraocular Pressure, Ocular Toxicity and Neurotoxicity after Administration of Cannabinol or Cannibigerol, Exptl. Eye Research 39, 252-259 (1984)]. Similarly, synthetic cannabinoids also reduce intraocular pressure [Green, Symunds, Oliver and Elijah, Intraocular Pressure Following Systemic Administration of Cannabinoids, Curr. Eye Research 2, 247-253 (1982); Tiedeman, Shields, Weber, Crow, Coccetto, Harris and Howes, Ophthalmology., 88, 270-277 (1981); Colasanti et al., supra]. Cannabinoid receptor binding sites can be defined as those to which radio-labelled 4-(1,1-dimethylheptyl)-2,3'-dihydroxy-6'alpha-(3-hydroxypropyl)-1',2',3',4',5',6'-hexahydrobiphenyl (CP 55940) binds in a specific and saturable manner, and the binding sites are heterogeneously distributed in the brain [Devane, Dysarz, Johnson, Melvin and Howlett, Determination and Characterization of a Cannabinoid Receptor in Rat Brain, Molecular Pharm. 34, 605-613 (1988)]. Natural and synthetic cannabinoids and representative examples of the compounds of the present invention bind to CP 55940 binding sites. […] It is believed that agonist activity at the cannabinoid receptor mediates the anti-glaucoma actions of cannabinoids, and that agonist activity at this receptor correlates with ocular pressure lowering actions in man.

By IC50 is commonly meant the midpoint of a concentration-inhibition curve. Read a low IC50 as greater potency in that assay.

Each structure is given as a SMILES string. Where only a bound is given, the exact number is not on record here.

`Cc1c(C(=O)c2ccc3c(c2)OCO3)c2ccccc2n1CCN1CCOCC1` [Example 1-O]: under “Mus musculus”, the IC50 was 1300 nM.

The molecule `COc1cccc(C(=O)c2c(C)n(CCN3CCOCC3)c3ccccc23)c1` [Example 1AA] came in with an IC50 (Mus musculus) of 200 nM.

Under “Mus musculus”, `COc1ccc(C(=O)c2c(C)n(CCN3CCOCC3)c3ccccc23)cc1OC` [Example 1AB] returned an IC50 of 68 nM.

The molecule `Cc1c(C(=O)c2ccccc2)c2ccccc2n1CCN1CCOCC1` [Example 1AE] displayed an IC50 (Mus musculus) of 700 nM.

As to `O=C(c1ccccc1)c1cn(CCN2CCOCC2)c2ccccc12` [Example 1AF], for the setting “Mus musculus”, the IC50 turned out to be 1100 nM. This IC50 lies about 1.6-fold higher than the previous one.

Take `Cc1c(C(=O)c2ccc(Cl)cc2)c2ccccc2n1CCN1CCOCC1` [Example 1AG]: the IC50 (Mus musculus) came out at 560 nM.

Regarding `Cc1c(C(=O)c2ccccc2)c2ccccc2n1C(C)CN1CCOCC1` (stereo not shown) [Example 1AK], the IC50 (Mus musculus) is 900 nM.

Consider `COc1ccc(C(=O)c2c(C)n(CCN3CCOCC3)c3ccccc23)c2ccccc12` [Example 1AV], for which the IC50 (Mus musculus) came out at 26 nM.

For the molecule `COc1ccc2cc(C(=O)c3c(C)n(CCN4CCOCC4)c4ccccc34)ccc2c1` [Example 1AW], where the note is “Mus musculus”, half-maximal inhibition (IC50) required 460 nM.

In the case of `COc1ccc(C(=O)c2cn(CCCN3CCOCC3)c3ccc(F)cc23)cc1` [Example 1AX], the IC50 (Mus musculus) was more than 10000 nM.

Regarding `Cc1c(C(=O)c2cccc3c2OCO3)c2ccccc2n1CCN1CCOCC1` [Example 1BJ], it took 310 nM to reach half-maximal inhibition (Mus musculus) (IC50).

For the molecule `Cc1cccc(C)c1C(=O)c1c(C)n(CCN2CCOCC2)c2ccccc12` [Example 1BO], it took 1600 nM to reach half-maximal inhibition (Mus musculus) (IC50).

As for `COc1cccc(C(=O)c2c(C)n(CCN3CCOCC3)c3ccccc23)c1OC` [Example 1BP], it took 260 nM to reach half-maximal inhibition (Mus musculus) (IC50).

`COc1cc(OC)cc(C(=O)c2c(C)n(CCN3CCOCC3)c3ccccc23)c1` [Example 1BQ] gave an IC50 (Mus musculus) of 420 nM.

As for `Cc1c(C(=O)c2cccc3ccccc23)c2ccccc2n1CCCN1CCOCC1` [Example 1BU], half-maximal inhibition (Mus musculus) (IC50) was put at 111 nM. This IC50 is about 3.8-fold lower than that of the molecule before.

With `Cc1ccc2c(C(=O)c3cccc4ccccc34)c(C)n(CCN3CCOCC3)c2c1` [Example 1BV], half-maximal inhibition (Mus musculus) (IC50) was put at 15 nM.

Take `O=C(c1cccc2ccccc12)c1cn(CCN2CCOCC2)c2ccc(Br)cc12` [Example 1BW]: for the setting “Mus musculus”, the IC50 turned out to be 20 nM.

`CC(Cn1cc(C(=O)c2cccc3ccccc23)c2ccccc21)N1CCOCC1` (stereo not shown) [Example 1BX] yielded an IC50 (Mus musculus) of 60 nM.

In turn, `COc1ccc(C(=O)c2cn(CCCN3CCOCC3)c3ccccc23)cc1` [Example 1BZ] came in with an IC50 (Mus musculus) of 4300 nM.

Consider `COc1cc(C(=O)c2c(C)n(CCN3CCOCC3)c3ccccc23)cc(OC)c1OC` [Example 1CB], for which, for the setting “Mus musculus”, half-maximal inhibition (IC50) required 90 nM.

Where the note is “Mus musculus”, `COc1ccc(C(=O)c2cn(CCCN3CCOCC3)c3c(C)cccc23)cc1` [Example 1CD] registered a concentration for half-maximal inhibition (IC50) of 40 nM.

As for `O=C(c1cccc2ccccc12)c1cn(CCN2CCOCC2)c2ccc(F)cc12` [Example 1CE], where the note is “Mus musculus”, the IC50 amounted to 7 nM.

For the setting “Mus musculus”, `Cc1c(C(=O)c2cccc3cc4ccccc4cc23)c2ccccc2n1CCN1CCOCC1` [Example 1CF] yielded an IC50 of 60 nM.

Where the note is “Mus musculus”, `Cc1c(C(=O)c2cc3ccccc3c3ccccc23)c2ccccc2n1CCN1CCOCC1` [Example 1CG] had an IC50 of 170 nM.

The molecule `O=C(c1ccccc1)c1cn(CCN2CCOCC2)c2ccccc12` [Example 1CH] returned an IC50 of 1600 nM.

Consider `COc1ccc(C(=O)c2c(C)n(CCN3CCCC3)c3ccccc23)cc1` [Example 1CI], for which the IC50 (Mus musculus) is 240 nM.

For the setting “Mus musculus”, `COc1ccc(C(=O)c2c(C)n(CCCN3CCCC3)c3ccccc23)cc1` [Example 1CJ] gave an IC50 of more than 10000 nM.

Consider `CSc1ccc(C(=O)c2c(C)n(CCN3CCOCC3)c3ccccc23)cc1` [Example 1C], for which, under “Mus musculus”, the IC50 is 610 nM. In other words, the sub-micromolar range.

For `COc1ccc(C(=O)c2c(C)n(CCN3CCOCC3)c3c(C)cccc23)cc1` [Example 1D], the IC50 (Mus musculus) was found to be 178 nM.

As for `COc1ccc(C(=O)c2c(C)n(CCN3CCOCC3)c3ccc(F)cc23)cc1` [Example 1E], the IC50 (Mus musculus) turned out to be 120 nM.

`COc1ccc(C(=O)c2c(C)n(CCN3CCOCC3)c3ccccc23)cc1` [Example 1F] yielded an IC50 of 1400 nM.

`COc1ccc(C(=O)c2c(C)n(CCCN3CCOCC3)c3ccccc23)cc1` [Example 1H] came in with an IC50 (Mus musculus) of 360 nM.

As to `COc1ccc(C(=O)c2c(C)n(CCN3CCOCC3)c3c(F)cccc23)cc1` [Example 1J], the IC50 (Mus musculus) is 73 nM.

Consider `COc1ccc(C(=O)c2c(C)n(CCN3CCOCC3)c3c(OC)cccc23)cc1` [Example 1K], for which 260 nM corresponded to half-maximal inhibition (Mus musculus) (IC50).

On to `COc1ccc(C(=O)c2c(C)n(CCN3CCOCC3)c3cc(Cl)ccc23)cc1` [Example 1L], for which inhibition (Mus musculus) was half-maximal at 540 nM (IC50).

On to `Cc1c(C(=O)c2cc3ccccc3o2)c2ccccc2n1CCN1CCOCC1` [Example 1P], for which, where the note is “Mus musculus”, the IC50 is 320 nM. This IC50 is about 1.7-fold lower than that of the molecule before.

With `COc1ccccc1C(=O)c1c(C)n(CCN2CCOCC2)c2ccccc12` [Example 1R], the IC50 (Mus musculus) is 90 nM.

In the case of `Cc1c(C(=O)c2ccc3ccccc3c2)c2ccccc2n1CCN1CCOCC1` [Example 1S], half-maximal inhibition (Mus musculus) (IC50) was put at 50 nM. This IC50 lies about 1.8-fold lower than the previous one.

For `Cc1c(C(=O)c2cccc(F)c2)c2ccccc2n1CCN1CCOCC1` [Example 1U], the IC50 (Mus musculus) is 1900 nM. Against the preceding molecule, the IC50 is about 38-fold higher.

`CCc1ccc(C(=O)c2c(C)n(CCN3CCOCC3)c3ccccc23)cc1` [Example 1X] gave an IC50 (Mus musculus) of 71 nM.

In the case of `Cc1ccc(C(=O)c2c(C)n(CCN3CCOCC3)c3ccccc23)cc1` [Example 1Z], the IC50 (Mus musculus) was determined as 440 nM. This IC50 lies about 6.2-fold higher than the previous one.

In turn, `Cc1c(C(=O)c2ccc3occc3c2)c2ccccc2n1CCN1CCOCC1` [Example 2AA] returned an IC50 (Mus musculus) of 125 nM.

In turn, `COc1ccc(C(=O)c2c(C)n(CCN3CCOCC3)c3ccccc23)c(F)c1` [Example 2AD] showed an IC50 (Mus musculus) of 180 nM.

Molecule `Cc1c(C(=O)c2c(F)cccc2F)c2ccccc2n1CCN1CCOCC1` [Example 2AG] registered an IC50 (Mus musculus) of 370 nM.

Under “Mus musculus”, `Cc1cc(C)cc(C(=O)c2c(C)n(CCN3CCOCC3)c3ccccc23)c1` [Example 2AJ] yielded an IC50 of 390 nM.

For the molecule `Cc1c(C(=O)c2cccc(F)c2)c2ccccc2n1C(C)CN1CCOCC1` (stereo not shown) [Example 2AM], 860 nM corresponded to half-maximal inhibition (Mus musculus) (IC50).

For `Cc1c(C(=O)c2ccc(Br)cc2)c2ccccc2n1CCN1CCOCC1` [Example 2AR], half-maximal inhibition (Mus musculus) (IC50) was put at 620 nM.

`Cc1c(C(=O)c2ccc(Br)c3ccccc23)c2ccccc2n1CCN1CCOCC1` [Example 2AT] gave an IC50 (Mus musculus) of 34 nM.

As to `COc1ccc(C(=O)c2cn(C(C)CN3CCOCC3)c3ccccc23)cc1` (stereo not shown) [Example 2AU], the midpoint of inhibition (Mus musculus), the IC50, lay at 3700 nM.

For the setting “Mus musculus”, `CCC(CN1CCOCC1)n1c(C)c(C(=O)c2ccc3ccccc3c2)c2ccccc21` (stereo not shown) [Example 2AV] came in with an IC50 of 91 nM.

In turn, `O=C(c1ccc(Br)c2ccccc12)c1cn(CCN2CCOCC2)c2ccccc12` [Example 2AW] returned a 50% inhibitory concentration (IC50) (Mus musculus) of 5 nM. This IC50 is about 18-fold lower than that of the molecule before.

With `O=C(c1cccc2ccccc12)c1cn(CCCN2CCOCC2)c2ccccc12` [Example 2AX], the IC50 (Mus musculus) came to 10 nM.

With `Cc1ccc2c(C(=O)c3cccc4ccccc34)cn(CCN3CCOCC3)c2c1` [Example 2AY], for the setting “Mus musculus”, the IC50 worked out at 2 nM.

Molecule `Cc1c(C(=O)c2ccc3ncccc3c2)c2ccccc2n1CCN1CCOCC1` [Example 2AZ] had an IC50 (Mus musculus) of 102 nM.

Where the note is “Mus musculus”, `Cc1c(C(=O)c2ccc3cccnc3c2)c2ccccc2n1CCN1CCOCC1` [Example 2BA] came in with an IC50 of 93 nM.

For `Cc1c(C(=O)c2cccc3cccnc23)c2ccccc2n1CCN1CCOCC1` [Example 2BB], the IC50 (Mus musculus) stood at 129 nM.

Where the note is “Mus musculus”, `Cc1c(C(=O)c2cnc3ccccc3c2)c2ccccc2n1CCN1CCOCC1` [Example 2BC] yielded an IC50 of 570 nM.

In turn, `Cc1c(C(=O)c2ccc3ccccc3n2)c2ccccc2n1CCN1CCOCC1` [Example 2BD] showed an IC50 (Mus musculus) of 99 nM. This IC50 is about 5.8-fold lower than that of the molecule before.
